Results on five molecules are retold here after patent US20250353891A1 (MEDIMMUNE LIMITED, priority 2022, published 2025).

Read-outs that look alike come from different tables or passages of the source. Starred links: 1 amine or outer side, 2 acyl side, 3 side chain; linkers in the order of their positions; H or OH if unused. Non-standard residues stand in square brackets, D forms with d. Residues, ends and D or L forms follow the SMILES beside them. Groups on a side chain read outwards from the residue. *: point of attachment. C18 diacid = O=C(O)CCCCCCCCCCCCCCCCC(=O)*; γGlu = O=C(O)[C@H](CCC(=O)[*:2])N[*:1]; αMeF = C[C@](N)(Cc1ccccc1)C(=O)O; PEG2 = NCCOCCOCCC(=O)O; AEEA = NCCOCCOCC(=O)O; Aib = CC(C)(N)C(=O)O

Test [1] has as its target human glucagon receptor (hGCGR) (Homo sapiens, UniProt P47871). Put plainly: cAMP production (HTRF) in CHO cells expressing hGCGR. The test is classed as cell-based. The arrangement: expressed in transfected cells. The note with it: geometric mean. In short, it runs like this:
(§1)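 Read-out: HTRF cAMP (anti-cAMP cryptate donor, cAMP-d2 acceptor in conjugate/lysis buffer), converted to % Delta F and fitted by 4-parameter logistic for EC50. Cell densities were 1×10^5 cells/mL (hGLP-1R) or 2×10^5 cells/mL (hGCGR). Stimulation lasted 30 min at room temperature.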

The target in test [2] is human GLP-1 receptor (hGLP-1R) (Homo sapiens, UniProt P43220). The test can be described thus: cAMP production (HTRF) in CHO cells expressing hGLP-1R. The test is classed as cell-based. Set-up: expressed in transfected cells. The note with it: for % Relative Potency Ratio: % GLP-1R activity relative to GLP-1 / % GlucR activity relative to glucagon. The method, boiled down:
as §1
A general note: Cyclic AMP is a second messenger, typically raised through Gs and lowered through Gi signalling.

The mark [3] stands for this setting: Table 6, peptides modified at position 17, cAMP in CHO hGCGR cells, read-out: hGluc-R EC50.
Where [4] appears, read: Table 6, peptides modified at position 17, cAMP in CHO hGLP-1R cells, geometric mean, read-out: hGLP-1R EC50.
[5] abbreviates: hGluc-R EC50 (pM), cAMP, CHO cells, 0.1% BSA.

human glucagon receptor (hGCGR), sequence (P47871 26-477): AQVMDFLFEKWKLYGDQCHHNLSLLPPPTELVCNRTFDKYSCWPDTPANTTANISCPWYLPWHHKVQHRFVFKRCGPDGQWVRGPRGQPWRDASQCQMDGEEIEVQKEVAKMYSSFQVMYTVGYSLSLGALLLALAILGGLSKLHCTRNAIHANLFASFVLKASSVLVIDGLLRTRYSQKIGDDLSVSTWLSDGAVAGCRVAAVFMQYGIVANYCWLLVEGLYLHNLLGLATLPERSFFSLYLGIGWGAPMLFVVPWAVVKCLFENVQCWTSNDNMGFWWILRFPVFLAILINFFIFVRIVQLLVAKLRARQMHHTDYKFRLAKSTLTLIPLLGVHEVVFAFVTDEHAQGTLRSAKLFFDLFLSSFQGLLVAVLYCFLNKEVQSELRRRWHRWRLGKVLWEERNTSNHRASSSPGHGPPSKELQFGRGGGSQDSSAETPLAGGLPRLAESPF
human GLP-1 receptor (hGLP-1R), sequence (P43220 24-463): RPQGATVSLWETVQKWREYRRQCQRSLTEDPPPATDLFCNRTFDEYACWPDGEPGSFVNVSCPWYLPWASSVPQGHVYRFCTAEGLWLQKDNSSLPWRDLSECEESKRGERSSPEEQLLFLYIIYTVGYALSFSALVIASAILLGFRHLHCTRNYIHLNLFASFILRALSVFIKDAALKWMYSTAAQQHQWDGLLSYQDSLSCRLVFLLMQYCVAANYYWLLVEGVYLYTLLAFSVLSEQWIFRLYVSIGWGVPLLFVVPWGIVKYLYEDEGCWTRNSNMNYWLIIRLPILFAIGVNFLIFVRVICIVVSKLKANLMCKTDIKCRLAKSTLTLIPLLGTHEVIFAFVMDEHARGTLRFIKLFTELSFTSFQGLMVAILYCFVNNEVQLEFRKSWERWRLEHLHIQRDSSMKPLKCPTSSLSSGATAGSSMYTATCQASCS

For the molecule `CC[C@H](C)[C@H](NC(=O)[C@H](Cc1c[nH]c2ccccc12)NC(=O)[C@H](CCCCNC(=O)COCCOCCNC(=O)COCCOCCNC(=O)CC[C@H](NC(=O)CC[C@H](NC(=O)CCCCCCCCCCCCCCCCC(=O)O)C(=O)O)C(=O)O)NC(=O)[C@@H](NC(=O)[C@](C)(Cc1ccccc1)NC(=O)[C@H](CC(=O)O)NC(=O)[C@H](CCC(N)=O)NC(=O)[C@H](C)NC(=O)[C@H](C)NC(=O)[C@H](CCCNC(=N)N)NC(=O)[C@H](CO)NC(=O)[C@H](CC(=O)O)NC(=O)[C@H](CC(C)C)NC(=O)[C@](C)(Cc1ccccc1)NC(=O)[C@H](CCCCN)NC(=O)[C@H](CO)NC(=O)[C@@H](NC(=O)[C@H](CC(=O)O)NC(=O)[C@H](CO)NC(=O)[C@@H](NC(=O)[C@](C)(Cc1ccccc1)NC(=O)[C@H](CO)NC(=O)CNC(=O)[C@H](Cc1c[nH]cn1)NC(=O)C(C)(C)NC(=O)[C@@H](N)Cc1c[nH]cn1)[C@@H](C)O)C(C)C)C(C)C)C(=O)N[C@@H](C)C(=O)N[C@@H](CC(N)=O)C(=O)N[C@H](C(N)=O)[C@@H](C)O` [Peptide 371] (H-H[Aib]HGS[αMeF]TSDVSK[αMeF]LDSRAAQD[αMeF]VK([AEEA-AEEA-γGlu-γGlu-C18 diacid])WIANT-NH2; N-terminus assumed), the EC50 is 87.2 pM in test [1] (cAMP, CHO cells, 0.1% BSA, read-out: hGluc-R EC50) and 191 pM in test [2] (cAMP, CHO cells, 0.1% BSA, geometric mean, read-out: hGLP-1R EC50). Besides, the “% Relative Potency Ratio” value in test [2] amounted to 0.9.

For `CC(C)C[C@H](NC(=O)[C@H](Cc1c[nH]c2ccccc12)NC(=O)[C@H](C)NC(=O)[C@@H](NC(=O)[C@H](Cc1ccccc1)NC(=O)[C@H](CC(=O)O)NC(=O)[C@H](CCC(N)=O)NC(=O)[C@H](C)NC(=O)[C@H](CCCNC(=N)N)NC(=O)[C@H](CCCCNC(=O)COCCOCCNC(=O)COCCOCCNC(=O)CC[C@H](NC(=O)CC[C@H](NC(=O)CCCCCCCCCCCCCCCCC(=O)O)C(=O)O)C(=O)O)NC(=O)[C@@H](NC(=O)[C@H](CC(=O)O)NC(=O)[C@H](CC(C)C)NC(=O)[C@](C)(Cc1ccccc1)NC(=O)[C@H](CCCCN)NC(=O)[C@H](CO)NC(=O)[C@@H](NC(=O)[C@H](CC(=O)O)NC(=O)[C@H](CO)NC(=O)[C@@H](NC(=O)[C@H](Cc1ccccc1)NC(=O)[C@@H](NC(=O)CNC(=O)[C@H](CCC(N)=O)NC(=O)C(C)(C)NC(=O)[C@@H](N)Cc1c[nH]cn1)[C@@H](C)O)[C@@H](C)O)C(C)C)[C@@H](C)O)C(C)C)C(=O)N[C@@H](CCC(=O)O)C(=O)N[C@@H](C)C(=O)NC(C)(C)C(=O)NCC(N)=O` [Peptide 431] (H-H[Aib]QGTFTSDVSK[αMeF]LDTK([AEEA-AEEA-γGlu-γGlu-C18 diacid])RAQDFVAWLEA[Aib]G-NH2; N-terminus assumed), the results for the EC50 in test [1] (setting [3]) and in test [2] (setting [4]) were 194 pM and 44.6 pM, respectively. The “% Relative Potency Ratio” value in test [2] (Table 6) amounted to 8.6.

`CC(C)C[C@H](NC(=O)[C@H](Cc1c[nH]c2ccccc12)NC(=O)[C@H](CCC(N)=O)NC(=O)[C@@H](NC(=O)[C@H](Cc1ccccc1)NC(=O)[C@H](CC(=O)O)NC(=O)[C@H](CCC(N)=O)NC(=O)[C@H](C)NC(=O)[C@H](CCCNC(=N)N)NC(=O)[C@H](CCCCNC(=O)COCCOCCNC(=O)COCCOCCNC(=O)CC[C@H](NC(=O)CCCCCCCCCCCCCCCCC(=O)O)C(=O)O)NC(=O)[C@@H](NC(=O)[C@H](CC(=O)O)NC(=O)[C@H](CC(C)C)NC(=O)[C@](C)(Cc1ccccc1)NC(=O)[C@H](CCCCN)NC(=O)[C@H](CO)NC(=O)[C@@H](NC(=O)[C@H](CC(=O)O)NC(=O)[C@H](CO)NC(=O)[C@@H](NC(=O)[C@H](Cc1ccccc1)NC(=O)[C@@H](NC(=O)CNC(=O)[C@H](CCC(N)=O)NC(=O)C(C)(C)NC(=O)[C@@H](N)Cc1c[nH]cn1)[C@@H](C)O)[C@@H](C)O)C(C)C)[C@@H](C)O)C(C)C)C(=O)N[C@@H](CC(C)C)C(=O)N[C@@H](CCC(=O)O)C(=O)NC(C)(C)C(=O)NCC(N)=O` [Peptide 466] (H-H[Aib]QGTFTSDVSK[αMeF]LDTK([AEEA-AEEA-γGlu-C18 diacid])RAQDFVQWLLE[Aib]G-NH2; N-terminus assumed): the EC50 is 131 pM in test [1] (setting [3]) and 35.6 pM in test [2] (setting [4]). The “% Relative Potency Ratio” value in test [2] (Table 6) came out at 7.3.

For `CC[C@H](C)[C@H](NC(=O)[C@H](Cc1c[nH]c2ccccc12)NC(=O)[C@H](CCCCNC(=O)CCOCCOCCNC(=O)CCOCCOCCNC(=O)CC[C@H](NC(=O)CC[C@H](NC(=O)CCCCCCCCCCCCCCCCC(=O)O)C(=O)O)C(=O)O)NC(=O)[C@@H](NC(=O)[C@H](Cc1ccccc1)NC(=O)[C@H](CC(=O)O)NC(=O)[C@H](CCC(N)=O)NC(=O)[C@H](C)NC(=O)[C@H](C)NC(=O)[C@H](CCC(N)=O)NC(=O)[C@H](CO)NC(=O)[C@H](CC(=O)O)NC(=O)[C@H](CC(C)C)NC(=O)[C@](C)(Cc1ccccc1)NC(=O)[C@H](CCCCN)NC(=O)[C@H](CO)NC(=O)[C@@H](NC(=O)[C@H](CC(=O)O)NC(=O)[C@H](CO)NC(=O)[C@@H](NC(=O)[C@](C)(Cc1ccccc1)NC(=O)[C@H](CO)NC(=O)CNC(=O)[C@H](Cc1c[nH]cn1)NC(=O)C(C)(C)NC(=O)[C@@H](N)Cc1c[nH]cn1)[C@@H](C)O)C(C)C)C(C)C)C(=O)N[C@@H](C)C(=O)N[C@@H](CC(N)=O)C(=O)N[C@H](C(N)=O)[C@@H](C)O` [Peptide 352] (H-H[Aib]HGS[αMeF]TSDVSK[αMeF]LDSQAAQDFVK([PEG2-PEG2-γGlu-γGlu-C18 diacid])WIANT-NH2; N-terminus assumed), the EC50 was determined as 139 pM in test [1] (setting [5]) and 193 pM in test [2] (hGLP-1R EC50 (pM)). Besides, the “% Relative Potency Ratio” value in test [2] worked out at 1.4.

`CC[C@H](C)[C@H](NC(=O)[C@H](Cc1c[nH]c2ccccc12)NC(=O)[C@H](CCCCNC(=O)COCCOCCNC(=O)COCCOCCNC(=O)CC[C@H](NC(=O)CCCCCCCCCCCCCCCCC(=O)O)C(=O)O)NC(=O)[C@@H](NC(=O)[C@H](Cc1ccccc1)NC(=O)[C@H](CC(=O)O)NC(=O)[C@H](CCC(N)=O)NC(=O)[C@H](C)NC(=O)[C@H](C)NC(=O)[C@H](CCC(N)=O)NC(=O)[C@H](CO)NC(=O)[C@H](CC(=O)O)NC(=O)[C@H](CC(C)C)NC(=O)[C@](C)(Cc1ccccc1)NC(=O)[C@H](CCCCN)NC(=O)[C@H](CO)NC(=O)[C@@H](NC(=O)[C@H](CC(=O)O)NC(=O)[C@H](CO)NC(=O)[C@@H](NC(=O)[C@](C)(Cc1ccccc1)NC(=O)[C@H](CO)NC(=O)CNC(=O)[C@H](Cc1c[nH]cn1)NC(=O)C(C)(C)NC(=O)[C@@H](N)Cc1c[nH]cn1)[C@@H](C)O)C(C)C)C(C)C)C(=O)N[C@@H](C)C(=O)N[C@@H](CC(N)=O)C(=O)N[C@H](C(=O)NCC(=O)NCC(N)=O)[C@@H](C)O` [Peptide 350] (H-H[Aib]HGS[αMeF]TSDVSK[αMeF]LDSQAAQDFVK([AEEA-AEEA-γGlu-C18 diacid])WIANTGG-NH2; N-terminus assumed): the EC50 in test [1] (setting [5]) worked out at 384 pM; in test [2] (hGLP-1R EC50 (pM)), 88.6 pM. Also, the “% Relative Potency Ratio” value in test [2] is recorded as 8.6.

The term EC50 denotes the concentration giving half of the maximal effect.
